Experimental data taken from patent publication US8461150B2, “Chalcone linked pyrrolo[2,1-c][1, 4]benzodiazepine hybrids as potential anticancer agents and process for the preparation thereof” (Council of Scientific & Industrial Research, priority 2008, dated 2013).

Tests used:
Breast cancer cell lines = assay: NCI in vitro anticancer screen, SRB assay, 48 h, panel average; type: cell-based, human; conditions: average of six to eight cell lines, 48 h exposure
Method: (§1) Biological Activity: The in vitro cell line studies were carried out at the National Cancer Institute, Maryland, USA.
(§2) Cytotoxicity: • The compounds 6b) 7-Methoxy-8-{4-[1-(4-fluorophenyl)-3-(4-hydroxy-3-methoxyphenyl)-2-propen-1-one]butyl}-oxy-(11aS)-1,2,3,11a-5H-pyrrolo[2,1-c][1,4]benzodiazepin-5-one; • (6c) 7-Methoxy-8-{5-[1-(4-fluorophenyl)-3-(4-hydroxy-3-methoxyphenyl)-2-propen-1-one]pentyl}-oxy-(11aS)-1,2,3,11a-5H-pyrrolo[2,1-c][1,4]benzodiazepin-5-one; • (6g) 7-Methoxy-8-{3-[1-(2-hydroxyphenyl)-3-(4-hydroxy-3-methoxyphenyl)-2-propen-1-one]propyl}-oxy-(11aS)-1,2,3,11a-5H-pyrrolo[2,1-c][1,4]benzodiazepin-5-one; • (10a) 7-Methoxy-8-{3-[3-(4-hydroxy-3-methoxyphenyl)-1-(2,4-dimethyl-3-quinolyl)-2-propen-1-one]propyl}-oxy-(11aS)-1,2,3,11a-5H-pyrrolo[2,1-c][1,4]benzodiazepin-5-one • (10b) 7-Methoxy-8-{4-[3-(4-hydroxy-3-methoxyphenyl)-1-(2,4-dimethyl-3-quinolyl)-2-propen-1-one]butyl}-oxy-(11aS)-1,2,3,11a-5H-pyrrolo[2,1-c][1,4]benzodiazepin-5-one; were evaluated for in vitro anticancer activity against […] derived from […] (leukemia, ovarian, renal, melanoma, CNS, colon, prostate, lung, cervix and breast cancer) as shown in (Table 1, 2 and 3)
(§3) 6b, 6c, 6g, 10a and 10b were evaluated for in vitro anticancer activity against sixty human tumour cells derived from nine cancer types (leukemia, non-small-cell lung, colon, CNS, melanoma, ovarian, prostate, renal and breast cancer) as shown in (Table 1 and 2). For the compound, dose response curves for each cell line were measured at a minimum of five concentrations at 10 fold dilutions. A protocol of 48 h continuous drug exposure was used and a sulforhodamine B (SRB) protein assay was used to estimate cell viability or growth. The concentration causing 50% cell growth inhibition (GI50), total cell growth inhibition (TGI 0% growth) and 50% cell death (LC50, −50% growth) compared with the control was calculated.
(§4) Each cancer type represents the average of six to eight different cancer cell lines.

CNS cancer cell lines = assay: as above; type: cell-based, human; conditions: average of six to eight cell lines, 48 h exposure
Method: as §1, §2, §3, §4

Colon cancer cell lines = assay: as above; type: cell-based, human; conditions: average of six to eight cell lines, 48 h exposure
Method: as §1, §2, §3, §4

[1] = system: Leukemia cancer cell lines; assay: as above; type: cell-based, human; conditions: average of six to eight cell lines, 48 h exposure
Method: as §1, §2, §3, §4

[2] = system: Melanoma cancer cell lines; assay: as above; type: cell-based, human; conditions: average of six to eight cell lines, 48 h exposure
Method: as §1, §2, §3, §4

[3] = system: Non-small cell lung cancer cell lines; assay: as above; type: cell-based, human; conditions: average of six to eight cell lines, 48 h exposure
Method: as §1, §2, §3, §4

[4] = system: Ovarian cancer cell lines; assay: as above; type: cell-based, human; conditions: average of six to eight cell lines, 48 h exposure
Method: as §1, §2, §3, §4

[5] = system: Prostate cancer cell lines; assay: as above; type: cell-based, human; conditions: average of six to eight cell lines, 48 h exposure
Method: as §1, §2, §3, §4

Renal cancer cell lines = assay: as above; type: cell-based, human; conditions: average of six to eight cell lines, 48 h exposure
Method: as §1, §2, §3, §4

human tumour cell lines = assay: In vitro cytotoxicity, mean graph midpoints (MG_MID) over human tumour cell lines; type: cell-based; conditions: for Log10LC50 mean graph midpoint (MG_MID): 50% cell death; for Log10LC50 mean graph midpoint (MG_MID) / Log10GI50 mean graph midpoint (MG_MID) / Log10TGI mean graph midpoint (MG_MID): human tumour cell lines, 48 h exposure, SRB; for cytotoxicity against some cancer cell lines: in words, refers to Table 3; for Log10TGI mean graph midpoint (MG_MID): total cell growth inhibition
Method: as §1, §3

A498 (Renal) = assay: Cytotoxicity in selected cancer cell lines (SRB, 48 h); type: cell-based, human
Method: as §1, §3
(§5) Each cancer type represents the average of six to nine different cancer cell lines. In vitro evaluation of cytotoxic activity. The compound 6b, 6c, 6g 10a and 10b were evaluated for in vitro anticancer activity against nine human tumour cells derived from six cancer types (leukemia, colon, prostate, melanoma, ovarian, lung, cervix and breast cancer) as shown in Table 3. […] Compounds 6b, 6c, 6g, 10a and 10b have been evaluated for their in vitro cytotoxicity in selected human cancer cell lines of colon (Colo205), lung (NCI-H522, NCI-H226), colon (colo-205), prostate (DU145, PC3), ovarian (IGROV1, HT1080), and breast (MDA-MB-435, Zr-75-1), melanoma (LOXMIVI, VACC-62, SK-MEL-5) origin. A protocol of 48 h continuous drug exposure has been used and an […] has been used to estimate cell viability or growth. The results are expressed as percent of cell growth determined relative to that of untreated control cells

CCRF-CEM (Leukemia) = assay: as above; type: cell-based, human
Method: as §1, §3, §5

HCT-116 (Colon) = assay: as above; type: cell-based, human
Method: as §1, §3, §5

LOX IMVI (Melanoma) = assay: as above; type: cell-based, human
Method: as §1, §3, §5

MDA-MB-231/ATCC (Breast) = assay: as above; type: cell-based, human
Method: as §1, §3, §5

[6] = system: NCI-H522 (Non-small cell lung); assay: as above; type: cell-based, human
Method: as §1, §3, §5

SK-MEL-5 (Melanoma) = assay: as above; type: cell-based, human
Method: as §1, §3, §5

SW-620 (Colon) = assay: as above; type: cell-based, human
Method: as §1, §3, §5

UO-31 (Renal) = assay: as above; type: cell-based, human
Method: as §1, §3, §5

[7] = system: duplex-form calf thymus DNA (CT-DNA); assay: Thermal denaturation studies with calf thymus DNA; type: binding; conditions: [PBD]:[DNA] molar ratio 1:5, CT-DNA 100 μM, ligand 20 μM, pH 7.00; for ΔTμ (° C.) after incubation at 37 °C. for 0 h: 0 h incubation; for ΔTμ (° C.) after incubation at 37 °C. for 18 h: 18 h incubation
Method: These compounds have also been subjected to thermal denaturation studies with duplex-form calf thymus DNA (CT-DNA) using an modification of a reported procedure. Working solutions in aqueous buffer (10 mM NaH2PO4/Na2HPO4, 1 mM Na2EDTA, pH 7.00+0.01) containing CT-DNA (100 μm in phosphate) and the PBD (20 μm) have been prepared by addition of concentrated PBD solutions in DMSO to obtain a fixed [PBD]/[DNA] molar ratio of 1:5. The DNA-PBD solutions have been incubated at 37° C. for 0 and 18 h prior to analysis. Samples have been monitored at 260 nm using a Beckman DU-800 spectrophotometer fitted with high performance temperature controller, and heated at 1° C. min^−1 in the 40-110° C. range. DNA helix→coil transition temperatures (Tm) have been obtained from the maxima in the d(A260)/d T derivative plots. Drug-induced alterations in DNA melting behavior are given by: ΔTm=Tm(DNA+PBD)−Tm(DNA alone), where the Tm value for the PBD-free CT-DNA is 68.5±0.01.

Row | SMILES | Log GI50 (concentration in mol/L causing 50% growth inhibition) (Breast cancer cell lines) | Log GI50 (concentration in mol/L causing 50% growth inhibition) (CNS cancer cell lines) | Log GI50 (concentration in mol/L causing 50% growth inhibition) (Colon cancer cell lines) | Log GI50 (concentration in mol/L causing 50% growth inhibition) [1] | Log GI50 (concentration in mol/L causing 50% growth inhibition) [2] | Log GI50 (concentration in mol/L causing 50% growth inhibition) [3] | Log GI50 (concentration in mol/L causing 50% growth inhibition) [4] | Log GI50 (concentration in mol/L causing 50% growth inhibition) [5] | Log GI50 (concentration in mol/L causing 50% growth inhibition) (Renal cancer cell lines) | Log10LC50 mean graph midpoint (MG_MID) (human tumour cell lines) | Log10GI50 mean graph midpoint (MG_MID) (human tumour cell lines) | cytotoxicity against some cancer cell lines (human tumour cell lines) | Log10TGI mean graph midpoint (MG_MID) (human tumour cell lines) | GI50 (A498 (Renal)) | GI50 (CCRF-CEM (Leukemia)) | GI50 (HCT-116 (Colon)) | GI50 (LOX IMVI (Melanoma)) | GI50 (MDA-MB-231/ATCC (Breast)) | GI50 [6] | GI50 (SK-MEL-5 (Melanoma)) | other results
1 | COc1cc(C=CC(=O)c2ccc(F)cc2)ccc1OCCCCOc1cc2c(cc1OC)C(=O)N1CCC[C@H]1C=N2 [6b, 7-Methoxy-8-{4-[1-(4-fluorophenyl)-3-(4-hydroxy-3-methoxyphenyl)-2-propen-1-one]butyl}-oxy-(11aS)-1,2,3,11a-5H-pyrrolo[2,1-c][1,4]benzodiazepin-5-one] | −6.57 mol/L | −5.91 mol/L | −6.53 mol/L | −6.84 mol/L | −6.65 mol/L | −6.84 mol/L | −5.56 mol/L | −5.63 mol/L | −6.67 mol/L | −4.59 | −6.83 | promising cytotoxicity | −6.81 | 26.1 µM | 16 µM | 11.2 µM | 10 µM | 11.6 µM | 11.5 µM | 10 µM | GI50 (SW-620 (Colon)): 13.5 µM; GI50 (UO-31 (Renal)): 19.2 µM; ΔTμ (° C.) after incubation at 37 °C. for 0 h [7]: 2.2 °C; ΔTμ (° C.) after incubation at 37 °C. for 18 h [7]: 2.6 °C
2 | COc1cc(C=CC(=O)c2ccc(F)cc2)ccc1OCCCCCOc1cc2c(cc1OC)C(=O)N1CCC[C@H]1C=N2 [6c, 7-Methoxy-8-{5-[1-(4-fluorophenyl)-3-(4-hydroxy-3-methoxyphenyl)-2-propen-1-one]pentyl}-oxy-(11aS)-1,2,3,11a-5H-pyrrolo[2,1-c][1,4]benzodiazepin-5-one] | −6.31 mol/L | −5.68 mol/L | −6.76 mol/L | −6.59 mol/L | −6.38 mol/L | −6.38 mol/L | −4.60 mol/L | −5.05 mol/L | −6.39 mol/L | −4.61 | −6.86 | promising cytotoxicity | −6.79 | 20.1 µM | 25.1 µM | 21 µM | 18.2 µM | 19.9 µM | 65.3 µM | 20.9 µM | GI50 (SW-620 (Colon)): 18.8 µM; GI50 (UO-31 (Renal)): 21.1 µM; ΔTμ (° C.) after incubation at 37 °C. for 0 h [7]: 2.4 °C; ΔTμ (° C.) after incubation at 37 °C. for 18 h [7]: 2.9 °C
3 | COc1cc(C=CC(=O)c2c(C)nc3ccccc3c2C)ccc1OCCCOc1cc2c(cc1OC)C(=O)N1CCC[C@H]1C=N2 [10a, 7-Methoxy-8-{3-[3-(4-hydroxy-3-methoxyphenyl)-1-(2,4-dimethyl-3-quinolyl)-2-propen-1-one]propyl}-oxy-(11aS)-1,2,3,11a-5H-pyrrolo[2,1-c][1,4]benzodiazepin-5-one] | −6.31 mol/L | −6.61 mol/L | −6.76 mol/L | −6.88 mol/L | −6.38 mol/L | −6.79 mol/L | −5.10 mol/L | −5.05 mol/L | −6.39 mol/L | −4.43 | −6.94 | promising cytotoxicity | −6.90 | 20.1 µM | 12.5 µM | 21 µM | 18.2 µM | 19.9 µM | 10.8 µM | 20.9 µM | GI50 (SW-620 (Colon)): 26.6 µM; GI50 (UO-31 (Renal)): 21.6 µM; ΔTμ (° C.) after incubation at 37 °C. for 0 h [7]: 4.0 °C; ΔTμ (° C.) after incubation at 37 °C. for 18 h [7]: 4.6 °C
4 | COc1cc(C=CC(=O)c2c(C)nc3ccccc3c2C)ccc1OCCCCOc1cc2c(cc1OC)C(=O)N1CCC[C@H]1C=N2 [10b, 7-Methoxy-8-{4-[3-(4-hydroxy-3-methoxyphenyl)-1-(2,4-dimethyl-3-quinolyl)-2-propen-1-one]butyl}-oxy-(11aS)-1,2,3,11a-5H-pyrrolo[2,1-c][1,4]benzodiazepin-5-one] | −6.52 mol/L | −6.16 mol/L | −6.41 mol/L | −6.94 mol/L | −6.59 mol/L | −6.87 mol/L | −5.28 mol/L | −5.85 mol/L | −6.17 mol/L | −4.46 | −6.86 | promising cytotoxicity | −6.94 | 19.5 µM | 13.4 µM | 14.6 µM | 15 µM | 14.2 µM | 9 µM | 23.3 µM | GI50 (SW-620 (Colon)): 25.9 µM; GI50 (UO-31 (Renal)): 15.2 µM; ΔTμ (° C.) after incubation at 37 °C. for 0 h [7]: 4.3 °C; ΔTμ (° C.) after incubation at 37 °C. for 18 h [7]: 4.9 °C
